Test results: patent publication US7504371B2, “Organic catalyst with enhanced enzyme compatibility” (The Procter & Gamble Company, priority 2005, dated 2009)
Counter-ions that a name gives are not always drawn.

Experiments:
Type in all cases: biochemical
Termamyl = biological target: T1, Termamyl (Bacillus licheniformis, UniProt P06278); assay: Organic Catalyst/Enzyme Compatibility Test (alpha amylase activity assay), Termamyl; conditions: (Ac/Ab)×100; [Peracetic Acid]=5.0 ppm; [organic catalyst]=0.5 ppm; 40° C.; detergent solution
T1 construct: purchased Novozymes, Denmark
Protocol: (§1) Organic Catalyst/Enzyme Compatibility Test
(§2) The test described below uses an alpha amylase activity assay to measure the impact of organic catalysts on the enzyme.
(§3) Equipment. UV/V is spectrophotometer capable of measuring @ 415 nm, heated magnetic stirrer capable of 40° C., 5 mL Luer lock syringe and filters (Acrodisc 0.45 μm), pH meter, and balance (4-place analytical).
(§4) Reagents. […]
(§5) • a.) TRIS Assay Buffer. […] Mix 6 μL of filtered sample with 250 μL of amylase reagent in a cuvette and place the cuvette in a UV/VIS spectrophotometer and monitor change in absorbance at 415 nm. Determine length of time (tE) to the nearest second required to obtain an absorbance reading of 1.0 for each enzyme. […] Once sample and reagent are mixed, record the absorbance at tE for the respective enzyme. Designate such absorbance Ab. • c.) Analysis of sample with enzyme, peracetic acid, and organic catalyst. […] Once sample and reagent are mixed, record the absorbance at tE for the respective enzyme. Designate such absorbance Ac. […] The ECV for any specific enzyme is (Ac/Ab)×100 where Ab and Ac are the values determined in Steps 2.)b.) and 2.)c.), respectively, for that enzyme. • b.) The ECV for a given organic catalyst is the average of the individual ECV values for the three enzymes. […]

Duramyl = assay: Organic Catalyst/Enzyme Compatibility Test (alpha amylase activity assay), Duramyl; conditions: (Ac/Ab)×100; [Peracetic Acid]=5.0 ppm; [organic catalyst]=0.5 ppm; 40° C.; detergent solution
Protocol: as §1, §2, §3, §4, §5

Natalase = assay: Organic Catalyst/Enzyme Compatibility Test (alpha amylase activity assay), Natalase; conditions: (Ac/Ab)×100; [Peracetic Acid]=5.0 ppm; [organic catalyst]=0.5 ppm; 40° C.; detergent solution
Protocol: as §1, §2, §3, §4, §5

[1] = test system: Termamyl, Natalase, and Duramyl; assay: Organic Catalyst/Enzyme Compatibility Test, average of the three amylases; conditions: ECV=(ECVter+ECVdur+ECVnat)/3; [Peracetic Acid]=5.0 ppm; [organic catalyst]=0.5 ppm
Protocol: as §1, §2, §3, §4, §5

T1 sequence (P06278 30-512): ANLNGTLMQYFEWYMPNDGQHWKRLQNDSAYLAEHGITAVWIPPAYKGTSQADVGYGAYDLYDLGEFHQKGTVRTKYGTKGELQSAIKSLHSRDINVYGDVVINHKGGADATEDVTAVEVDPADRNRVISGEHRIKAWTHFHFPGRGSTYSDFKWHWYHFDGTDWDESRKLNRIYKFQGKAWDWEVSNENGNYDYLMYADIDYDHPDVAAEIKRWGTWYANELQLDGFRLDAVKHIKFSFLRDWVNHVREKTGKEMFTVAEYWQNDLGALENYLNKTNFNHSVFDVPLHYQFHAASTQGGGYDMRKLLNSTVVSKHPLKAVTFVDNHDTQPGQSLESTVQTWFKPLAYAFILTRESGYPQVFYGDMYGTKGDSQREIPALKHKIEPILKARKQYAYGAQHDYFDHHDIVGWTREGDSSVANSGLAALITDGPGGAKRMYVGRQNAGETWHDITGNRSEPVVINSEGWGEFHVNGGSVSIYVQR

With CC(C)(C)OCC(C[N+]1=Cc2ccccc2CC1)OS(=O)(=O)[O-] (stereo not shown) [Entry 1, Sulfuric acid mono-[2-(3,4-dihydro-isoquinolin-2-yl)-1-((1,1-dimethylethoxy)methyl)ethyl] ester, internal salt] the “Enzyme Compatibility Values ECVter” value (Termamyl) was 51, the “Enzyme Compatibility Values ECVdur” value (Duramyl) was 86 and the “Enzyme Compatibility Values ECVnat” value (Natalase) was 58. For the same compound, the “Enzyme Compatibility Values ECV” value [1] was 65.
